Experimental data taken from publication PMC11033320, “Activation of p53 signaling and regression of breast and prostate carcinoma cells by spirooxindole-benzimidazole small molecules” (Frontiers in Pharmacology, 2024).

Experiments:
[1] = MTT cytotoxicity to normal human lung fibroblast Wi-38 cell line; format: cell-based; conditions: Wi-38 normal lung fibroblast cells, mean ± SEM, read-out: percentage of Wi-38 viability
Protocol: Normal human lung fibroblast Wi-38 cell line was used to detect cytotoxicity of the studied compounds (Table S8). Wi-38 cell line was cultured in DMEM medium-contained 10% fetal bovine serum (FBS), seeded as 5x10^3 cells per well in 96-well cell culture plate and incubated at 37 °C in 5% CO2 incubator. After 24 h for cell attachment, serial concentrations of the synthetic compounds were incubated with Wi-38 cells for 72 h. Cell viability was assayed by MTT method (Mosmann, 1983). Twenty microliters of 5 mg/ml MTT (Sigma, USA) was added to each well and the plate was incubated at 37 °C for 3 h. Then MTT solution was removed, 100 µl DMSO was added and the absorbance of each well was measured with a microplate reader (BMG LabTech, Germany) at 570 nm.

[2] = biological target: T1, Mdm2 (residues 1–118 T47W) (Homo sapiens, UniProt Q00987, T47W); assay: MDM2 binding by microscale thermophoresis (MST)
T1 construct: Mdm2 (residues 1–118 T47W; 500 nM)
Protocol: MST is a complementary biophysical assay to assess the binding of a small molecule to its receptor. […] Experiments were performed in 50 mM phosphate buffer at pH 7.4 containing 150 mM NaCl, 5 mM DTT, and 5% DMSO. […] Kd values and uncertainties were calculated using the MO Affinity Analysis software.

RPMI-8226 = assay: NCI anticancer screening, Leukemia RPMI-8226; format: cell-based; conditions: Homo sapiens; RPMI-8226, 10 μM; read-out: % Growth Inhibition (GI %)
Source text: (§1) The compound has been processed according to standard method NCI-60 Human Tumor Cell Lines Screen for organic compound at development therapeutic program (DTP). Requests for access to this national resource can be submitted online at: […]

NCI-H23 = assay: NCI anticancer screening, Non-Small Cell Lung Cancer NCI-H23; format: cell-based; conditions: Homo sapiens; NCI-H23, 10 μM; read-out: % Growth Inhibition (GI %)
Source text: as §1

COLO 205 = assay: NCI anticancer screening, Colon Cancer COLO 205; format: cell-based; conditions: Homo sapiens; COLO 205, 10 μM; read-out: % Growth Inhibition (GI %)
Source text: as §1

HCT-116 = assay: NCI anticancer screening, Colon Cancer HCT-116; format: cell-based; conditions: Homo sapiens; HCT-116, 10 μM; read-out: % Growth Inhibition (GI %)
Source text: as §1

HT29 = assay: NCI anticancer screening, Colon Cancer HT29; format: cell-based; conditions: Homo sapiens, HT-29; HT29, 10 μM; read-out: % Growth Inhibition (GI %)
Source text: as §1

SF-539 = assay: NCI anticancer screening, CNS Cancer SF-539; format: cell-based; conditions: Homo sapiens; SF-539, 10 μM; read-out: % Growth Inhibition (GI %)
Source text: as §1

LOX IMVI = assay: NCI anticancer screening, Melanoma LOX IMVI; format: cell-based; conditions: Homo sapiens, read-out: % Growth Inhibition (GI %)
Source text: as §1

MALME-3M = assay: NCI anticancer screening, Melanoma MALME-3M; format: cell-based; conditions: Homo sapiens, read-out: % Growth Inhibition (GI %)
Source text: as §1

MDA-MB-435 = assay: NCI anticancer screening, Melanoma MDA-MB-435; format: cell-based; conditions: Homo sapiens; MDA-MB-435, 10 μM; read-out: % Growth Inhibition (GI %)
Source text: as §1

SK-MEL-5 = assay: NCI anticancer screening, Melanoma SK-MEL-5; format: cell-based; conditions: Homo sapiens; SK-MEL-5, 10 μM; read-out: % Growth Inhibition (GI %)
Source text: as §1

UACC-257 = assay: NCI anticancer screening, Melanoma UACC-257; format: cell-based; conditions: Homo sapiens; UACC-257, 10 μM; read-out: % Growth Inhibition (GI %)
Source text: as §1

IGROV1 = assay: NCI anticancer screening, Ovarian Cancer IGROV1; format: cell-based; conditions: Homo sapiens, IGROV-1; IGROV1, 10 μM; read-out: % Growth Inhibition (GI %)
Source text: as §1

OVCAR-4 = assay: NCI anticancer screening, Ovarian Cancer OVCAR-4; format: cell-based; conditions: Homo sapiens; OVCAR-4, 10 μM; read-out: % Growth Inhibition (GI %)
Source text: as §1

OVCAR-8 = assay: NCI anticancer screening, Ovarian Cancer OVCAR-8; format: cell-based; conditions: Homo sapiens; OVCAR-8, 10 μM; read-out: % Growth Inhibition (GI %)
Source text: as §1

NCI/ADR-RES = assay: NCI anticancer screening, Ovarian Cancer NCI/ADR-RES; format: cell-based; conditions: Homo sapiens, read-out: % Growth Inhibition (GI %)
Source text: as §1

SK-OV-3 = assay: NCI anticancer screening, Ovarian Cancer SK-OV-3; format: cell-based; conditions: Homo sapiens; SK-OV-3, 10 μM; read-out: % Growth Inhibition (GI %)
Source text: as §1

A498 = assay: NCI anticancer screening, Renal Cancer A498; format: cell-based; conditions: Homo sapiens; A498, 10 μM; read-out: % Growth Inhibition (GI %)
Source text: as §1

ACHN = assay: NCI anticancer screening, Renal Cancer ACHN; format: cell-based; conditions: Homo sapiens, read-out: % Growth Inhibition (GI %)
Source text: as §1

RXF 393 = assay: NCI anticancer screening, Renal Cancer RXF 393; format: cell-based; conditions: Homo sapiens; RXF 393, 10 μM; read-out: % Growth Inhibition (GI %)
Source text: as §1

UO-31 = assay: NCI anticancer screening, Renal Cancer UO-31; format: cell-based; conditions: Homo sapiens; UO-31, 10 μM; read-out: % Growth Inhibition (GI %)
Source text: as §1

DU-145 = assay: NCI anticancer screening, DU-145; format: cell-based; conditions: Homo sapiens; DU-145, 10 μM; read-out: % Growth Inhibition (GI %)
Source text: as §1

HS 578T = assay: NCI anticancer screening, Breast Cancer HS 578T; format: cell-based; conditions: Homo sapiens, read-out: % Growth Inhibition (GI %)
Source text: as §1

NCI-H226 = assay: NCI anticancer screening, Non-Small Cell Lung Cancer NCI-H226; format: cell-based; conditions: Homo sapiens; NCI-H226, 10 μM; read-out: % Growth Inhibition (GI %)
Source text: as §1

[3] = tested on: leukemia cells (CCRF-CEM; HL-60 (TB); K-562; MOLT-4; RPMI-8226, SR); assay: NCI anticancer screening, leukemia subpanel; format: cell-based, human; conditions: smaller GI% than the other compounds
Source text: as §1

T1 sequence (Q00987 1-118 T47W): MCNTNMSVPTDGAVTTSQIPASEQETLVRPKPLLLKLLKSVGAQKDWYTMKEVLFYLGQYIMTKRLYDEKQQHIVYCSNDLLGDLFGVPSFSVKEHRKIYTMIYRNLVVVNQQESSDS

For O=C(c1nc2ccccc2[nH]1)[C@H]1[C@H](c2cccs2)C2CSCN2[C@]12C(=O)Nc1ccccc12 (stereo partly drawn) [Compound 6e, (3S,6′R)-6'-(1H-Benzo [d]imidazole-2-carbonyl)-7'-(thiophen-2-yl)-3′,6′,7′,7a′-tetrahydro-1′H-spiro [indoline-3.5′-pyrrolo [1,2-c]thiazol]-2-one], the viability at 72 h, 5 µM [1] was 51.7 ± 1.28%, the Kd [2] was 113 µM and the inhibition at 10 µM (RPMI-8226) was 101%. It also gave an inhibition at 10 µM (NCI-H23) of 103%, an inhibition at 10 µM (COLO 205) of 112% and an inhibition at 10 µM (HCT-116) of 96.3%. It also gave an inhibition at 10 µM (HT29) of 101%, an inhibition at 10 µM (SF-539) of 101% and an inhibition at 10 µM (LOX IMVI) of 97.5%. It also gave an inhibition at 10 µM (MALME-3M) of 101%, an inhibition at 10 µM (MDA-MB-435) of 100% and an inhibition at 10 µM (SK-MEL-5) of 99%. For the same molecule, the inhibition at 10 µM (UACC-257) was 93.4%, the inhibition at 10 µM (IGROV1) was 89.7% and the inhibition at 10 µM (OVCAR-4) was 93.9%. It also gave an inhibition at 10 µM (OVCAR-8) of 96.8%, an inhibition at 10 µM (NCI/ADR-RES) of 102% and an inhibition at 10 µM (SK-OV-3) of 101%. For the same molecule, the inhibition at 10 µM (A498) was 79.7%, the inhibition at 10 µM (ACHN) was 103% and the inhibition at 10 µM (RXF 393) was 112%. For the same molecule, the inhibition at 10 µM (UO-31) was 76%, the inhibition at 10 µM (DU-145) was 109% and the inhibition at 10 µM (HS 578T) was 101%.
Work on O=C(c1nc2ccccc2[nH]1)[C@H]1[C@H](c2ccc(F)cc2)C2CSCN2[C@]12C(=O)Nc1ccccc12 (stereo partly drawn) [Compound 6f, (3S,6′R)-6'-(1H-Benzo [d]imidazole-2-carbonyl)-7'-(4-fluorophenyl)-3′,6′,7′,7a′-tetrahydro-1′H-spiro [indoline-3.5′-pyrrolo [1,2-c]thiazol]-2-one] yielded a viability at 72 h, 5 µM [1] of 47.39 ± 0.092%, an inhibition at 10 µM (RPMI-8226) of 87.8% and an inhibition at 10 µM (NCI-H23) of 98%. It also gave an inhibition at 10 µM (COLO 205) of 109%, an inhibition at 10 µM (HCT-116) of 92.9% and an inhibition at 10 µM (HT29) of 85.7%. It also gave an inhibition at 10 µM (SF-539) of 97.7%, an inhibition at 10 µM (LOX IMVI) of 94.8% and an inhibition at 10 µM (MALME-3M) of 94.2%. The inhibition at 10 µM (MDA-MB-435) was 94.6%, the inhibition at 10 µM (SK-MEL-5) was 94.7% and the inhibition at 10 µM (UACC-257) was 83.9%. The inhibition at 10 µM (IGROV1) was 93.2%, the inhibition at 10 µM (OVCAR-4) was 83.2% and the inhibition at 10 µM (OVCAR-8) was 94.7%. The inhibition at 10 µM (NCI/ADR-RES) was 99.4%, the inhibition at 10 µM (SK-OV-3) was 102% and the inhibition at 10 µM (A498) was 57.2%. For the same molecule, the inhibition at 10 µM (ACHN) was 94.2%, the inhibition at 10 µM (RXF 393) was 99.6% and the inhibition at 10 µM (UO-31) was 77%. It also gave an inhibition at 10 µM (DU-145) of 111% and an inhibition at 10 µM (HS 578T) of 98%.
Work on COc1cc([C@@H]2C3CSCN3[C@]3(C(=O)Nc4ccccc43)[C@H]2C(=O)c2nc3ccccc3[nH]2)cc(OC)c1OC (stereo partly drawn) [Compound 6i, (3S,6′R)-6'-(1H-Benzo [d]imidazole-2-carbonyl)-7'-(3,4,5-trimethoxyphenyl)-3′,6′,7′,7a′-tetrahydro-1′H-spiro [indoline-3.5′-pyrrolo [1,2-c]thiazol]-2-one] yielded a viability at 72 h, 5 µM [1] of 43.3 ± 0.917%, an inhibition at 10 µM (RPMI-8226) of 108% and an inhibition at 10 µM (NCI-H23) of 104%. For the same molecule, the inhibition at 10 µM (COLO 205) was 114%, the inhibition at 10 µM (HCT-116) was 102% and the inhibition at 10 µM (HT29) was 107%. It also gave an inhibition at 10 µM (SF-539) of 99.6%, an inhibition at 10 µM (LOX IMVI) of 101% and an inhibition at 10 µM (MALME-3M) of 99.8%. It also gave an inhibition at 10 µM (MDA-MB-435) of 101%, an inhibition at 10 µM (SK-MEL-5) of 103% and an inhibition at 10 µM (UACC-257) of 87.8%. For the same molecule, the inhibition at 10 µM (IGROV1) was 95.8%, the inhibition at 10 µM (OVCAR-4) was 100% and the inhibition at 10 µM (OVCAR-8) was 99.3%. For the same molecule, the inhibition at 10 µM (NCI/ADR-RES) was 104%, the inhibition at 10 µM (SK-OV-3) was 102% and the inhibition at 10 µM (A498) was 81.7%. The inhibition at 10 µM (ACHN) was 107%, the inhibition at 10 µM (RXF 393) was 109% and the inhibition at 10 µM (UO-31) was 86.6%. The inhibition at 10 µM (DU-145) was 111% and the inhibition at 10 µM (HS 578T) was 102%.
Molecule O=C(c1nc2ccccc2[nH]1)[C@H]1[C@H](c2ccc(Br)cc2)C2CSCN2[C@]12C(=O)Nc1ccccc12 (stereo partly drawn) [Compound 6l, (3S,6′R)-6'-(1H-Benzo [d]imidazole-2-carbonyl)-7'-(4-bromophenyl)-3′,6′,7′,7a′-tetrahydro-1′H-spiro [indoline-3.5′-pyrrolo [1,2-c]thiazol]-2-one] has a viability at 72 h, 5 µM [1] of 37.4 ± 2.02%, a Kd [2] of 49.9 µM and an inhibition at 10 µM (RPMI-8226) of 61.3%. The inhibition at 10 µM (NCI-H226) was 74.8%, the inhibition at 10 µM (NCI-H23) was 75% and the inhibition at 10 µM (HCT-116) was 59.2%. The inhibition at 10 µM (HT29) was 80.2%, the inhibition at 10 µM (SF-539) was 82.4% and the inhibition at 10 µM (LOX IMVI) was 73.2%. For the same molecule, the inhibition at 10 µM (MALME-3M) was 78.5%, the inhibition at 10 µM (MDA-MB-435) was 67.9% and the inhibition at 10 µM (SK-MEL-5) was 84.8%. It also gave an inhibition at 10 µM (UACC-257) of 77.9%, an inhibition at 10 µM (IGROV1) of 63.6% and an inhibition at 10 µM (OVCAR-4) of 70.8%. The inhibition at 10 µM (OVCAR-8) was 89.8%, the inhibition at 10 µM (NCI/ADR-RES) was 83.2% and the inhibition at 10 µM (ACHN) was 74.6%. For the same molecule, the inhibition at 10 µM (RXF 393) was 62.1%, the inhibition at 10 µM (UO-31) was 48.6% and the inhibition at 10 µM (DU-145) was 97.1%. The inhibition at 10 µM (HS 578T) was 67.6% and the “GI% for MOLT-4, RPMI-8226, and SR cancer cells” value [3] was 75%.
